Measurements as given in patent publication US8455440B2, “Combination anticoagulant therapy with a compound that acts as a factor Xa inhibitor” (Millennium Pharmaceuticals, Inc., priority 2007, dated 2013).

Legend:
[1] = tested on: clotting times (prothrombin time, PT and activated partial thromboplastin times, aPTT); experiment: Ex vivo clotting times (PT, aPTT) in the rat thrombosis model
Experimental: (§1) In this experiment, the ability of Compound A to maintain vessel patency under arterial flow conditions in ferric chloride induced thrombosis in rat carotid artery is compared to that achieved by clopidogrel. Compound A was administered by intravenous infusions and clopidogrel was dosed orally for three days. Ex vivo platelet aggregation induced by 10 μM ADP and clotting times (prothrombin time, PT and activated partial thromboplastin times, aPTT) were measured over the experimental time course (90 min) in all animals.
as §1, with “The combination effect of an anticoagulant and anti-platelet agent, aspirin, was investigated in an in vivo model of thrombosis. […] In” for “In”, “aspirin.” for “clopidogrel.”, “aspirin” for “clopidogrel”, “administered as an intravenous bolus approximately 30 min prior to the start of the experiment.” for “dosed orally for three days.”, “μg/mL of collagen” for “μM ADP”

thrombin generation = experiment: Thrombin generation inhibition assay; format: biochemical, human
Experimental: After 10 min, the reaction was stopped by addition of EGTA. A chromogenic peptide substrate (Spectrozyme TH, American Diagnostica) specific for thrombin was added to measure the activity of thrombin generated during the tissue factor treatment period. After allowing the substrate cleavage reaction to proceed for 2 min, the samples were quenched with glacial acetic acid. The plasma samples were analyzed in triplicate in a 96-well plate format. […] The control samples were used to establish plate acceptance criteria. Absorbance of each sample well was measured at 405 nm.
Thrombin generation (% Inhibition) was calculated from absorbance at 405 nm (A405) by the following equation: %Inhibition=(1−A405/Baseline)×100.
Since thrombin generation inhibition values were reported as a percentage there is no lower limit of quantitation in this assay.

[2] = Compound A 0.03 μM, aspirin 3 mg/kg, or both

COc1ccc(NC(=O)c2ccc(C(=N)N(C)C)cc2)c(C(=O)Nc2ccc(Cl)cn2)c1 [Compound A, [2-({4-[(dimethylamino)iminomethyl]phenyl}carbonylamino)-5-methoxyphenyl]-N-(5-chloro(2-pyridyl))carboxamide]
PT ratio ([1]; 0.03 μM Compound A): 1.08
PT ratio ([1]; 0.1 μM Compound A): 1.19
PT ratio ([1]; 0.3 μM Compound A): 1.33
APTT Ratio [1, 2]: 1.08
PT ratio [1, 2]: 1.07
change in PT ([1]; therapeutic dose of the single agent): 33%
correlation between Compound A plasma concentration and inhibition of thrombin generation (thrombin generation; plasma of healthy volunteers, single and multiple ascending doses (FIG. 1, FIG. 2)): good correlation
effect on inhibition of thrombin generation (thrombin generation; total knee replacement patients, 15 mg or 40 mg oral twice a day): dose- and concentration-dependent effect
